Test results taken from patent US11884671B2, “Purinone compounds and their use in treating cancer” (ASTRAZENECA AB, priority 2018, dated 2024).

Key:
AURKA (Aurora A) = AURKA (Aurora A) (Homo sapiens (Human), UniProt O14965); assay: Aurora-A enzyme assay (Z'-LYTE); assay type: biochemical; details: 10 μM ATP, arithmetic mean of two or more experiments; for IC50: read-out: AurA enz pIC50 (converted)
Description: (§1) The inhibitory activity of compounds against AURKA, AURKB, JAK1, JAK2 and JAK3 was determined in Z′-LYTE® assays run by ThermoFisher Scientific as part of their SelectScreen® Biochemical Kinase Profiling Service. The Z′-LYTE® biochemical assay format employs a fluorescence-based, coupled-enzyme format and is based on the differential sensitivity of phosphorylated and non-phosphorylated peptides to proteolytic cleavage. The peptide substrate is labeled with two fluorophores—one at each end—that make up a FRET pair. In the primary reaction, the kinase transfers the gamma-phosphate of ATP to a single tyrosine, serine or threonine residue in a synthetic FRET-peptide. In the secondary reaction, a site-specific protease recognises and cleaves non-phosphorylated FRET-peptides. Phosphorylation of FRET-peptides suppresses cleavage by the Development Reagent. Cleavage disrupts FRET between the donor (i.e., coumarin) and acceptor (i.e., fluorescein) fluorophores on the FRET-peptide, whereas uncleaved, phosphorylated FRET-peptides maintain FRET. A ratiometric method, which calculates the ratio (the Emission Ratio) of donor emission to acceptor emission after excitation of the donor fluorophore at 400 nm, is used to quantitate reaction progress. Both cleaved and uncleaved FRET-peptides contribute to the fluorescence signals and therefore to the Emission Ratio. The extent of phosphorylation of the FRET-peptide can be calculated from the Emission Ratio.
(§2) 10 point three-fold dilution compound concentration-response curves, with a top concentration of 10 μM were generated from 10 mM stocks of compound solubilised in DMSO. All assays were performed in black, non-binding, low volume Corning 384-well plates (cat. #4514, Corning), in a total reaction volume of 10 μL and 1% (v/v) final DMSO concentration. […] The kinase reaction was then quenched by the addition of 5 μL of Development Reagent (ThermoFisher Scientific proprietary). […] IC50 values were calculated using XLfit software (IDBS Ltd, Surrey, UK), with the curve fit to model number 205 (sigmoidal dose-response model).
Aurora A (AurA): The 2×AURKA (Aurora A)/Ser/Thr 01 (ThermoFisher Scientific proprietary) mixture was prepared in 50 mM HEPES pH 7.5, 0.01% BRIJ-35, 10 mM MgCl2, 1 mM EGTA. […] After the 1 hour Kinase Reaction incubation, 5 μL of a 1:4096 dilution of Development Reagent was added.

JAK3 = JAK3 (Homo sapiens (Human), UniProt P52333); assay: JAK3 enzyme assay (Z'-LYTE); assay type: biochemical; details: 10 μM ATP, arithmetic mean of two or more experiments; for IC50: read-out: JAK3 enz pIC50 (converted)
Chain of JAK3 (P52333 whole entry): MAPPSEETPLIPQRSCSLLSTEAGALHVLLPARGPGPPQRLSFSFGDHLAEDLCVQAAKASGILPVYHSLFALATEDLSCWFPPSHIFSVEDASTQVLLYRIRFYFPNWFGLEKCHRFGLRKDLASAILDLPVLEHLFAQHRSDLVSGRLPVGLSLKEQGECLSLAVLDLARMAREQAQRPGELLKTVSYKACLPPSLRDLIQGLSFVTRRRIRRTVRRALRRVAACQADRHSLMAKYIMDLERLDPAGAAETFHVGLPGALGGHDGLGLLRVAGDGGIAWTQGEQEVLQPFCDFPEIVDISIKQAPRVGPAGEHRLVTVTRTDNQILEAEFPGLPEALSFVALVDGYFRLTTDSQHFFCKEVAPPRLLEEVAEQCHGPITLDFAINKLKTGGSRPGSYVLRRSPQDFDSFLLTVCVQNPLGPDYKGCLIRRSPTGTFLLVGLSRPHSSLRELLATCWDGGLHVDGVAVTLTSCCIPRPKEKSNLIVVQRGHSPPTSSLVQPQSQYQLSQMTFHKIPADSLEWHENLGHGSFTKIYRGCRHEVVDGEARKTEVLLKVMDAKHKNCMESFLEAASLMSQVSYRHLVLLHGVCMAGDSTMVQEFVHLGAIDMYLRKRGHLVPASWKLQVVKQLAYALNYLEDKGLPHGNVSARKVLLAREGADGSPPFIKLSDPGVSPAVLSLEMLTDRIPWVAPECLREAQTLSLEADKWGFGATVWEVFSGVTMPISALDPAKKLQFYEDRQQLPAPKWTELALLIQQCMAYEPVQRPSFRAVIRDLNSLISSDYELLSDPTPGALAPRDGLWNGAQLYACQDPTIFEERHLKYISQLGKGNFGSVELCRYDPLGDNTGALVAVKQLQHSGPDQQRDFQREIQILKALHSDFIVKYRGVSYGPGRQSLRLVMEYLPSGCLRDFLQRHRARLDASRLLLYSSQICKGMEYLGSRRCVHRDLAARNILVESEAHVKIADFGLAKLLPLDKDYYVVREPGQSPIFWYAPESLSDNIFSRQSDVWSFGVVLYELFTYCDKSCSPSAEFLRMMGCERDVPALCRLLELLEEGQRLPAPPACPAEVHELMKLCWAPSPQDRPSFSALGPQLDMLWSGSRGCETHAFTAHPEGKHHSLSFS
Description: as §1, §2
JAK3: The 2×JAK3/Tyr 06 (ThermoFisher Scientific proprietary) mixture was prepared in 50 mM HEPES pH 7.5. 0.01% BRIJ-35, 10 mM MgCl2, 1 mM EGTA. […] After the 1 hour Kinase Reaction incubation, 5 μL of a 1:128 dilution of Development Reagent was added.

JAK2 = JAK2 (Homo sapiens (Human), UniProt O60674); assay: JAK2 enzyme assay (Z'-LYTE); assay type: biochemical; details: 25 μM ATP, arithmetic mean of two or more experiments; for IC50: read-out: JAK2 enz pIC50 (converted)
Chain of JAK2 (O60674 whole entry): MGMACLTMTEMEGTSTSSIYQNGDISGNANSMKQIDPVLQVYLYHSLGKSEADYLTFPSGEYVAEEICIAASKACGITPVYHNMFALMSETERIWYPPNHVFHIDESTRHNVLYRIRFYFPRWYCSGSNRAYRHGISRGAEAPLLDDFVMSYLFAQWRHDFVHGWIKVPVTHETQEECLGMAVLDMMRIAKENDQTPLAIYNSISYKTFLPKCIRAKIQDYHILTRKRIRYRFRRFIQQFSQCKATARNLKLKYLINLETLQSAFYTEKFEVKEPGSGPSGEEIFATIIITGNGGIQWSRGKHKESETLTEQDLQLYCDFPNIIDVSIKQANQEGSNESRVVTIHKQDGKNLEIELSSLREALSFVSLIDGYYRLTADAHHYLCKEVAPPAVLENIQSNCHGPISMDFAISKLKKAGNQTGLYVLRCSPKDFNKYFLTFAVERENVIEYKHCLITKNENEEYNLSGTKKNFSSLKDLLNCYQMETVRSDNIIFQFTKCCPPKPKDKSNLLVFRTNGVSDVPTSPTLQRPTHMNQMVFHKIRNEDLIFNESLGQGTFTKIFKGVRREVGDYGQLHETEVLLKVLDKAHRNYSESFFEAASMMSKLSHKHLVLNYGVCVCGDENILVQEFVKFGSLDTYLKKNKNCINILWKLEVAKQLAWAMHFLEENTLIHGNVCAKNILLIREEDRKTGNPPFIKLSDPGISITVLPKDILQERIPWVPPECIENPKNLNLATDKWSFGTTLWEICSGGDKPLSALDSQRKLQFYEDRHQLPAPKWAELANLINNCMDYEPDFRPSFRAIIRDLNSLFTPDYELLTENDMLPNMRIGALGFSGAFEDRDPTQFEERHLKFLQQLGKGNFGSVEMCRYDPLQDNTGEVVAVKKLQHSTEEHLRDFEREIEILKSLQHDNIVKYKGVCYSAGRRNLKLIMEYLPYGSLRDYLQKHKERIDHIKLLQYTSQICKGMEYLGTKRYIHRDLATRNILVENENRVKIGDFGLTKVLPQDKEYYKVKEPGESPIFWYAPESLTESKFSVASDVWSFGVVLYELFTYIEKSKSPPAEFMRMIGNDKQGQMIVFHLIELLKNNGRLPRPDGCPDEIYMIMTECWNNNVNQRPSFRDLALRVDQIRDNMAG
Description: as §1, §2
JAK2: The 2×JAK2/Tyr 06 (ThermoFisher Scientific proprietary) mixture was prepared in 50 mM HEPES pH 7.5, 0.01% BRIJ-35, 10 mM MgCl2, 1 mM EGTA. […] After the 1 hour Kinase Reaction incubation, 5 μL of a 1:128 dilution of Development Reagent was added.

TTK = TTK (Homo sapiens (Human), UniProt P33981); assay: TTK enzyme assay (LanthaScreen Eu Kinase Binding); details: arithmetic mean of two or more experiments; for IC50: read-out: TTK enz pIC50 (converted)
Chain of TTK (P33981 whole entry): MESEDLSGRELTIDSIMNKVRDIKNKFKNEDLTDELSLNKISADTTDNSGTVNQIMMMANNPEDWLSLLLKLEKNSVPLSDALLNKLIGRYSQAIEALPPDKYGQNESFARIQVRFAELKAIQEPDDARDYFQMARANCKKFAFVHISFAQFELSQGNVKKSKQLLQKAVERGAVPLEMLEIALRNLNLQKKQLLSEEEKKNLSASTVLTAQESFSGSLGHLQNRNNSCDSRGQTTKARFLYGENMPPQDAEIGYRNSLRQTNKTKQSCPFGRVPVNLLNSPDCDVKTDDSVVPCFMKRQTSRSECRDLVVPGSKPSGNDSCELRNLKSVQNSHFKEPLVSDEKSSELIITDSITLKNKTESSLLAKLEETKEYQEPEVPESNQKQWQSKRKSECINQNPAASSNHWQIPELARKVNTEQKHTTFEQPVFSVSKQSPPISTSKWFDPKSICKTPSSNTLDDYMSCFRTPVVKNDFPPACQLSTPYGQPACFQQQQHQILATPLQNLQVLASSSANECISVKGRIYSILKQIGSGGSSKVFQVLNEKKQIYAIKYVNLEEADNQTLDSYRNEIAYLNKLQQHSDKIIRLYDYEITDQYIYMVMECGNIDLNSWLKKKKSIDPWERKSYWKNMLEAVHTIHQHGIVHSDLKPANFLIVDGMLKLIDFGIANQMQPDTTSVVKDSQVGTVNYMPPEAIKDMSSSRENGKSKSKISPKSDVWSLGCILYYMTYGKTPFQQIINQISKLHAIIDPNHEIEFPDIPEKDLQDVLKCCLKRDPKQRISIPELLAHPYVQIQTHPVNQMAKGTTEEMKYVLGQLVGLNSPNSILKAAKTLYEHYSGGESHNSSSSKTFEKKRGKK
Description: The inhibitory activity of compounds against TTK was determined in a LanthaScreen® Eu Kinase Binding assay run by ThermoFisher Scientific as part of their SelectScreen® Biochemical Kinase Profiling Service. The LanthaScreen® Eu Kinase Binding assay format uses binding of an Alexa Fluor® conjugate or “tracer” to a kinase, which is detected by addition of a Eu-labeled anti-tag antibody. […] The degree of FRET measured in the assay is used to determine the binding of a compound.
10 point three-fold dilution compound concentration-response curves, with a top concentration of 10 μM were generated from 10 mM stocks of compound solubilised in DMSO. All assays were performed in white, low volume Greiner 384-well plates (cat. #784207, Greiner), in a total reaction volume of 16 μL and 1% (v/v) final DMSO concentration. […] Plates were then read using a fluorescence plate reader. IC50 values were calculated using XLfit software (IDBS Ltd, Surrey, UK), with the curve fit to model number 205 (sigmoidal dose-response model).

AURKB (Aurora B) = AURKB (Aurora B) (Homo sapiens (Human), UniProt Q96GD4); assay: Aurora-B enzyme assay (Z'-LYTE); assay type: biochemical; details: 75 μM ATP, arithmetic mean of two or more experiments; for IC50: read-out: AurB enz pIC50 (converted)
Chain of AURKB (Aurora B) (Q96GD4 whole entry): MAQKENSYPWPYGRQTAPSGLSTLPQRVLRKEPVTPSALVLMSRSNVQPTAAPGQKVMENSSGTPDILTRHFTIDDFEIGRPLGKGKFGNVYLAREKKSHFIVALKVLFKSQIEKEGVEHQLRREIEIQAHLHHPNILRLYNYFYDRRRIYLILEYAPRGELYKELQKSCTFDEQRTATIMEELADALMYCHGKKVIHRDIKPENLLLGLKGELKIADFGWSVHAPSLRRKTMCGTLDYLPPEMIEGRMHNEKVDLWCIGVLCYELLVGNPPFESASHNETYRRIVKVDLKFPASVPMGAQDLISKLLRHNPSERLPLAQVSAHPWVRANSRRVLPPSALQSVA
Description: as §1, §2
Aurora B (AurB): The 2×AURKB (Aurora B)/Ser/Thr 01 (ThermoFisher Scientific proprietary) mixture was prepared in 50 mM HEPES pH 7.5, 0.01% BRIJ-35, 10 mM MgCl2, 1 mM EGTA. […] After the 1 hour Kinase Reaction incubation, 5 μL of a 1:4096 dilution of Development Reagent was added.

JAK1 = JAK1 (Homo sapiens (Human), UniProt P23458); assay: JAK1 enzyme assay (Z'-LYTE); assay type: biochemical; details: 75 μM ATP, arithmetic mean of two or more experiments; for IC50: read-out: JAK1 enz pIC50 (converted)
Chain of JAK1 (P23458 whole entry): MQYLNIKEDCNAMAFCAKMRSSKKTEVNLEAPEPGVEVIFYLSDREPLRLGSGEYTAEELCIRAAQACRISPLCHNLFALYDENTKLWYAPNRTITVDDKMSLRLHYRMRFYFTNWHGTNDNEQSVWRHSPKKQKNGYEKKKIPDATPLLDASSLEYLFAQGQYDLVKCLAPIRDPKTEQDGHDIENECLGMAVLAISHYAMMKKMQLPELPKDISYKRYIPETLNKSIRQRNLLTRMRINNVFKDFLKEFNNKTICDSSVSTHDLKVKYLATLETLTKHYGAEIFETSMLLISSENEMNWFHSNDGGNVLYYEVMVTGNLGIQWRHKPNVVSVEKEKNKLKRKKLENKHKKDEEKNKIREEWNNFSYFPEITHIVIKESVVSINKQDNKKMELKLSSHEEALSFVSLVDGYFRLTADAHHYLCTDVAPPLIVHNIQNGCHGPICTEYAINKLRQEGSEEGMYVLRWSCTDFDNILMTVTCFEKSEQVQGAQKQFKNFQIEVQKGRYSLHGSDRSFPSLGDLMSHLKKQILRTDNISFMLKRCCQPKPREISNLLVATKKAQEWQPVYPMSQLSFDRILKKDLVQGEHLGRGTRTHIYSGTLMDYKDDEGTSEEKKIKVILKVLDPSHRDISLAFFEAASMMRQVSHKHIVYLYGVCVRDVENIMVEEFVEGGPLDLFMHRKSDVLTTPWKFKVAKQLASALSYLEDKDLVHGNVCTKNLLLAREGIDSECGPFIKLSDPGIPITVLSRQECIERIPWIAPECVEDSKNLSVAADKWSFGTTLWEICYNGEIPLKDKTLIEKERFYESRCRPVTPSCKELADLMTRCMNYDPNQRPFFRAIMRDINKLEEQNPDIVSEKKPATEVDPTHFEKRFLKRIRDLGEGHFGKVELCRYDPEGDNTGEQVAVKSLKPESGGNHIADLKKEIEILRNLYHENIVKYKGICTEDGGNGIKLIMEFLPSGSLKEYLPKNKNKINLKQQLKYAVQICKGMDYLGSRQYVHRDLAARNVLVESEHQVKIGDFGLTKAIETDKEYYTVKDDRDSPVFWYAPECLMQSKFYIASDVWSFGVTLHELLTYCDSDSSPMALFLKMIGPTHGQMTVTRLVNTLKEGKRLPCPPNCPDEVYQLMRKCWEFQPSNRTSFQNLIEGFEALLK
Description: as §1, §2
JAK1: The 2×JAK/Tyr 06 (ThermoFisher Scientific proprietary) mixture was prepared in 50 mM HEPES pH 6.5, 0.01% BRIJ-35, 10 mM MgCl2, 1 mM EGTA, 0.02% NaN3. […] After the 1 hour Kinase Reaction incubation, 5 μL of a 1:128 dilution of Development Reagent was added.

Chain of AURKA (Aurora A) (O14965 whole entry): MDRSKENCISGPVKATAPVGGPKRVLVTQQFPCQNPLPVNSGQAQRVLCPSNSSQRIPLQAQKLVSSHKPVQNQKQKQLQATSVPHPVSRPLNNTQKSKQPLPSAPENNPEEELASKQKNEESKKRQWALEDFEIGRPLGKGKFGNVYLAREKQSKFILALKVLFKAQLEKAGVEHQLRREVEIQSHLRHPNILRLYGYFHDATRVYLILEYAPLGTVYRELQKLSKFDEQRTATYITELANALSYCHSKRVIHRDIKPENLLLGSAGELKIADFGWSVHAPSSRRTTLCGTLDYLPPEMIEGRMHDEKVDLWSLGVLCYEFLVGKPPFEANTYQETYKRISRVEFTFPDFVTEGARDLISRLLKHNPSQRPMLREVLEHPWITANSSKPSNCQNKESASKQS

Row | Compound | AurA enz pIC50 (AURKA (Aurora A)) | JAK3 enz pIC50 (JAK3) | JAK2 enz pIC50 (JAK2) | TTK enz pIC50 (TTK) | AurB enz pIC50 (AURKB (Aurora B)) | JAK1 enz pIC50 (JAK1) | IC50 (AURKA (Aurora A)) [µM] | IC50 (JAK3) [µM] | IC50 (JAK2) [µM] | IC50 (TTK) [nM] | IC50 (AURKB (Aurora B)) [µM] | IC50 (JAK1) [µM]
1 | CC(=O)N1CCC(n2c(=O)n(C)c3cnc(Nc4cc5ccnnc5cc4C)nc32)CC1 [Example 1, 9-(1-acetylpiperidin-4-yl)-7-methyl-2-((7-methylcinnolin-6-yl)amino)-7,9-dihydro-8H-purin-8-one] | <5 | <5 | <5.2 | 5.9 | <5 | <5 |  |  |  |  |  | 
2 | CC(=O)N1CCC(n2c(=O)n(C)c3cnc(Nc4cc5nccnc5cc4C)nc32)CC1 [Example 2, 9-(1-acetylpiperidin-4-yl)-7-methyl-2-((7-methylquinoxalin-6-yl)amino)-7,9-dihydro-8H-purin-8-one] | <5 | <5 | <5 | 5.8 | <5 | <5 |  |  |  |  |  | 
3 | CC(=O)N1CCC(n2c(=O)n(C)c3cnc(Nc4cc5cncnc5cc4C)nc32)CC1 [Example 3, 9-(1-acetylpiperidin-4-yl)-7-methyl-2-((7-methylquinazolin-6-yl)amino)-7,9-dihydro-8H-purin-8-one] | <5 | <5 | <5 | 5.4 | <5 | <5 |  |  |  |  |  | 
4 | CC(=O)N1CCC(n2c(=O)n(C)c3cnc(Nc4cc5ncc(C)nc5cc4C)nc32)CC1 [Example 4, 9-(1-acetylpiperidin-4-yl)-2-((2,7-dimethylquinoxalin-6-yl)amino)-7-methyl-7,9-dihydro-8H-purin-8-one] | <5 | <5 | <5 | 6.0 | <5 | <5 |  |  |  |  |  | 
5 | CC(=O)N1CCC(n2c(=O)n(C)c3cnc(Nc4cc5nc(C)cnc5cc4C)nc32)CC1 [Example 5, 9-(1-acetylpiperidin-4-yl)-2-((3,7-dimethylquinoxalin-6-yl)amino)-7-methyl-7,9-dihydro-8H-purin-8-one] | <5 | <5 | <5 | 5.3 | <5 | <5 |  |  |  |  |  | 
6 | Cc1cc2ncccc2cc1Nc1ncc2c(n1)n([C@H]1CC[C@H](O)CC1)c(=O)n2C [Example 6, 9-((1r,4r)-4-hydroxycyclohexyl)-7-methyl-2-((7-methylquinolin-6-yl)amino)-7,9-dihydro-8H-purin-8-one] | <5 | <5 | <5 | 7.2 | <5 | <5 |  |  |  |  |  | 
7 | Cc1cc2nnccc2cc1Nc1ncc2c(n1)n([C@H]1CC[C@H](O)CC1)c(=O)n2C [Example 7, 9-((1r,4r)-4-hydroxycyclohexyl)-7-methyl-2-((7-methylcinnolin-6-yl)amino)-7,9-dihydro-8H-purin-8-one] | <5 | <5 | <5 | 6.9 | <5 | <5 |  |  |  |  |  | 
8 | Cc1cc2nccc(C)c2cc1Nc1ncc2c(n1)n([C@H]1CC[C@H](O)CC1)c(=O)n2C [Example 8, 2-((4,7-dimethylquinolin-6-yl)amino)-9-((1r,4r)-4-hydroxycyclohexyl)-7-methyl-7,9-dihydro-8H-purin-8-one] |  |  |  |  |  |  | > 10 | > 10 | > 10 | 631 | > 10 | > 10
9 | COc1ccnc2cc(C)c(Nc3ncc4c(n3)n([C@H]3CC[C@H](O)CC3)c(=O)n4C)cc12 [Example 9, 9-((1r,4r)-4-hydroxycyclohexyl)-2-((4-methoxy-7-methylquinolin-6-yl)amino)-7-methyl-7,9-dihydro-8H-purin-8-one] | <5.1 | <5 | <5 | 6.1 | <5 | <5 |  |  |  |  |  | 
10 | Cc1cc2nccnc2cc1Nc1ncc2c(n1)n([C@H]1CC[C@H](O)CC1)c(=O)n2C [Example 10, 9-((1r,4r)-4-hydroxycyclohexyl)-7-methyl-2-((7-methylquinoxalin-6-yl)amino)-7,9-dihydro-8H-purin-8-one] |  |  |  |  |  |  | > 10 | > 10 | > 10 | 398 | > 10 | > 10
11 | Cc1cc2ncccc2cc1Nc1ncc2c(n1)n([C@H]1CC[C@@H](O)CC1)c(=O)n2C [Example 11, 9-((1s,4s)-4-hydroxycyclohexyl)-7-methyl-2-((7-methylquinolin-6-yl)amino)-7,9-dihydro-8H-purin-8-one] |  |  |  |  |  |  | > 10 | > 10 | > 10 | 398 | > 10 | > 10
12 | Cc1cc2nnccc2cc1Nc1ncc2c(n1)n([C@H]1CC[C@@H](O)CC1)c(=O)n2C [Example 12, 9-((1s,4s)-4-hydroxycyclohexyl)-7-methyl-2-((7-methylcinnolin-6-yl)amino)-7,9-dihydro-8H-purin-8-one] | <5 | <5 | <5 | 6.3 | <5 | <5 |  |  |  |  |  | 
13 | Cc1cc2nccnc2cc1Nc1ncc2c(n1)n([C@H]1CC[C@@H](O)CC1)c(=O)n2C [Example 13, 9-((1s,4s)-4-hydroxycyclohexyl)-7-methyl-2-((7-methylquinoxalin-6-yl)amino)-7,9-dihydro-8H-purin-8-one] |  |  |  |  |  |  | > 10 | > 10 | > 10 | 316 | > 10 | > 10
14 | Cc1cc2nccnc2cc1Nc1ncc2c(n1)n([C@H]1CC[C@](C)(O)CC1)c(=O)n2C [Example 18, 9-((1r,4r)-4-hydroxy-4-methylcyclohexyl)-7-methyl-2-((7-methylquinoxalin-6-yl)amino)-7,9-dihydro-8H-purin-8-one] |  |  |  |  |  |  | > 10 | > 10 | > 10 | 1580 | > 10 | > 10
